In patent publication US20030180927A1, “Yeast protein methyltransferase hsl7p” (priority 2003, published 2003):

What was measured:
Hs17p = target: T1, Hs17p (Saccharomyces cerevisiae, UniProt P38274); assay: In vitro methylation of myelin basic protein by Hs17p, inhibition; assay type: biochemical; details: [3H]AdoMet methyl donor, 30° C., 30 minutes, FIG. 2C
T1 construct: made in house; host or cells: S. cerevisiae hsl7-delta strain SPY103 (pGALFLAGHSL7, GAL1 promoter); anti-Flag immunoprecipitate
T1 sequence (P38274 1-827): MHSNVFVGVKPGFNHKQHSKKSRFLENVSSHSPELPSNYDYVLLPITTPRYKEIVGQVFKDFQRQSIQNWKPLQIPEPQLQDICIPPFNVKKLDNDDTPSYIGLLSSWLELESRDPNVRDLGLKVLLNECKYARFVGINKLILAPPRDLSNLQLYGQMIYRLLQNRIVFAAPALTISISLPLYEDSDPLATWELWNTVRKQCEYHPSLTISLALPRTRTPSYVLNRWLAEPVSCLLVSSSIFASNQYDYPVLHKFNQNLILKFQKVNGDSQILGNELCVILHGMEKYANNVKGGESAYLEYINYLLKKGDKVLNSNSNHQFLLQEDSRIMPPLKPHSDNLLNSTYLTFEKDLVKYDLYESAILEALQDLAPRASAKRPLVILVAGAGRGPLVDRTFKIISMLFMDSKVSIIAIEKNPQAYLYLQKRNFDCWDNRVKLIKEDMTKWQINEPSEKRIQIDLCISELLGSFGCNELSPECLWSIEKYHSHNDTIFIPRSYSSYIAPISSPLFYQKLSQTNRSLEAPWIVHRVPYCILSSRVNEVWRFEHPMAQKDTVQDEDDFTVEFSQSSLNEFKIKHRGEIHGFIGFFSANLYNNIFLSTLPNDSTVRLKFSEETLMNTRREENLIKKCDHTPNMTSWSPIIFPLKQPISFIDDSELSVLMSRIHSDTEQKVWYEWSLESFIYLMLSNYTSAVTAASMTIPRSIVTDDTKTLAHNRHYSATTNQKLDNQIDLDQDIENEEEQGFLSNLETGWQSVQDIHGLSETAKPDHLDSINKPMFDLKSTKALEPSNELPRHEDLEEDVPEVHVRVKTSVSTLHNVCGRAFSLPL
Experimental: (§1) In Vitro Methylation. Immunoprecipitated Flag-Hs17p was used to methylate histones and myelin basic protein with minor modifications of the method previously described. Each reaction contained 10 ig of substrate proteins (histones, MBP and cytochrome c). [^3H]AdoMet was added to a final concentration of 55 iCi/ml. The reaction contained 150 mM NaCl, 50 mM Tris.HCl (pH 8.0), 1% NP-40, 0.8 mM PMSF, 3 μg/ml antipain, 10 ig/ml benzamidine (10^4 kallikrein-inactivating units/ml) plus 1 μg/ml each of leupeptin, chymostatin and pepstatin. The 50 μl reactions were incubated at 30° C. for 30 minutes.
(§2) FIG. 2 illustrates the UV crosslinking of [^3H]AdoMet to Hs17p. […] After UV crosslinking, the 7.5% gel was dried and exposed to Biomax MR film for 15 days at −70° C. FIG. 2B show the in vitro methylation of protein substrates by Hs17p. Methylation reactions were done as described in “Experimental Procedures.” Each lane contained 10 μg at substrate protein. The position of the labeled bands coincided exactly with the location of the substrate proteins or the Coomassie blue-stained gel (not shown). The dried 15% gel was exposed to Biomax MR film for 21 days at −70° C. […] Protein sizes were calculated by the migration of broad range protein standards (BioRad).

JBP1 = JBP1 (Homo sapiens, UniProt O14744); assay: In vitro methylation of myelin basic protein by JBP1, inhibition; assay type: biochemical; details: [3H]AdoMet methyl donor, 30° C., 30 minutes, FIG. 2C
Experimental: as §1, §2

[1] = UV crosslinking of [3H]AdoMet; assay type: binding; details: immunoprecipitated protein, FIG. 2A
Experimental: UV Crosslinking. Crosslinking of [^3H]AdoMet to Hs17p and JBP1 was performed as described.
FIG. 2 illustrates the UV crosslinking of [^3H]AdoMet to Hs17p. […] After UV crosslinking, the 7.5% gel was dried and exposed to Biomax MR film for 15 days at −70° C. FIG. 2B show the in vitro methylation of protein substrates by Hs17p. Methylation reactions were done as described in “Experimental Procedures.” Each lane contained 10 μg at substrate protein. The position of the labeled bands coincided exactly with the location of the substrate proteins or the Coomassie blue-stained gel (not shown). The dried 15% gel was exposed to Biomax MR film for 21 days at −70° C. […] Protein methylation reactions were conducted as described in “Experimental Procedures,” except that homocysteine was added to the other reaction components on ice. The reactions were then incubated at 30° C. for 30 minutes. The 15% gel was exposed to Biomax MR film for 14 days at −70° C. Protein sizes were calculated by the migration of broad range protein standards (BioRad).

[2] = test system: calf histones, bovine myelin basic protein and bovine cytochrome c; assay: In vitro methylation of protein substrates; assay type: biochemical; details: substrates H2A, H4 and myelin basic protein, 10 μg, FIG. 2B
Experimental: as §1, §2

Chain of JBP1 (O14744 whole entry): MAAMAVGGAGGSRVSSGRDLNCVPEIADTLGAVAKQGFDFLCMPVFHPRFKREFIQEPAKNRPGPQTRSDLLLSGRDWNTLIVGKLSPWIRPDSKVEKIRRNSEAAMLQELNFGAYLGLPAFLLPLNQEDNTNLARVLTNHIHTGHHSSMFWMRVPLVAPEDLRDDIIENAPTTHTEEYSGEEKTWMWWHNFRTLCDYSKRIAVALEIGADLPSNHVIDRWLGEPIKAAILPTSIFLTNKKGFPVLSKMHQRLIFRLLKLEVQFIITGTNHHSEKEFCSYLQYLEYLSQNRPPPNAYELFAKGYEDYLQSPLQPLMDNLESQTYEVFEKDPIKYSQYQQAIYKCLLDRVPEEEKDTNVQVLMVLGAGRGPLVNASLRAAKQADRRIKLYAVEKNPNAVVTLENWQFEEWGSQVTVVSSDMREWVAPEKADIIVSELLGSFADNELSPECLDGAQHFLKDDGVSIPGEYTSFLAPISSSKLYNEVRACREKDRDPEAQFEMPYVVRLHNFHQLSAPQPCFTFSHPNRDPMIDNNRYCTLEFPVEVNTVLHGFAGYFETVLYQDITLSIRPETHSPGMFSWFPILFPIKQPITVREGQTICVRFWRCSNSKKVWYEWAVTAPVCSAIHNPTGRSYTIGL
Chain of JBP1 (Q9BQA1 whole entry partner): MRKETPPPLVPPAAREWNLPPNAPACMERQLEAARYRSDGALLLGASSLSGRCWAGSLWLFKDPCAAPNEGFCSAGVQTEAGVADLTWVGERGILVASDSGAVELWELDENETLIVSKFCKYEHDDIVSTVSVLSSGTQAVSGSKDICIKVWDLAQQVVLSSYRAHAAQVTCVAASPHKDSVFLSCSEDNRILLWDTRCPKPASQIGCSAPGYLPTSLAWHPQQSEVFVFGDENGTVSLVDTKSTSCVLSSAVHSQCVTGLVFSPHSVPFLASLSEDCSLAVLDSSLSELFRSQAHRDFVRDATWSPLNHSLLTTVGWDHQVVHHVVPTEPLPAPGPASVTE

**Q.** Which results are given for `N[C@@H](CCS)C(=O)O` [homocysteine]?
**A.** inhibition of myelin basic protein in vitro methylation by Hs17p (Hs17p): blocks; inhibition of myelin basic protein in vitro methylation by JBP1 (JBP1): blocks

B1: Hs17p: yeast protein methyltransferase, homologue of Janus kinase binding protein 1, expressed by HSL7 (protein, UniProt P38274 1-827, looked up)
Protein arginine …: MHSNVFVGVKPGFNHKQHSKKSRFLENVSSHSPELPSNYDYVLLPITTPRYKEIVGQVFKDFQRQSIQNWKPLQIPEPQLQDICIPPFNVKKLDNDDTPSYIGLLSSWLELESRDPNVRDLGLKVLLNECKYARFVGINKLILAPPRDLSNLQLYGQMIYRLLQNRIVFAAPALTISISLPLYEDSDPLATWELWNTVRKQCEYHPSLTISLALPRTRTPSYVLNRWLAEPVSCLLVSSSIFASNQYDYPVLHKFNQNLILKFQKVNGDSQILGNELCVILHGMEKYANNVKGGESAYLEYINYLLKKGDKVLNSNSNHQFLLQEDSRIMPPLKPHSDNLLNSTYLTFEKDLVKYDLYESAILEALQDLAPRASAKRPLVILVAGAGRGPLVDRTFKIISMLFMDSKVSIIAIEKNPQAYLYLQKRNFDCWDNRVKLIKEDMTKWQINEPSEKRIQIDLCISELLGSFGCNELSPECLWSIEKYHSHNDTIFIPRSYSSYIAPISSPLFYQKLSQTNRSLEAPWIVHRVPYCILSSRVNEVWRFEHPMAQKDTVQDEDDFTVEFSQSSLNEFKIKHRGEIHGFIGFFSANLYNNIFLSTLPNDSTVRLKFSEETLMNTRREENLIKKCDHTPNMTSWSPIIFPLKQPISFIDDSELSVLMSRIHSDTEQKVWYEWSLESFIYLMLSNYTSAVTAASMTIPRSIVTDDTKTLAHNRHYSATTNQKLDNQIDLDQDIENEEEQGFLSNLETGWQSVQDIHGLSETAKPDHLDSINKPMFDLKSTKALEPSNELPRHEDLEEDVPEVHVRVKTSVSTLHNVCGRAFSLPL
modifications: FLAG tag
**Q.** For B1, which “UV crosslinking / binding of [3H]AdoMet” value [1] is on record?
**A.** binds AdoMet

**Q.** And the “in vitro methylation of substrate protein” value [2]?
**A.** methylated
